Results reported in the supplement of paper PMC5908809.

How the values were obtained:
[1] = test system: SNK-6 (IL-2 2.5 ng/mL); test: percent inhibition of viability; higher = more inhibition; conditions: 72 h
[2] = test system: KAI3 (IL-2 2.5 ng/mL); test: as above; conditions: 72 h
[3] = test system: normal primary NK cells, pool 2 (3 donors) (IL-2 2.5 ng/mL); test: as above; conditions: 72 h
[4] = test system: normal primary NK cells, pool 1 (3 donors) (IL-2 2.5 ng/mL); test: as above; conditions: 72 h
[5] = test system: KHYG-1 (IL-2 2.5 ng/mL); test: as above; conditions: 72 h
[6] = test system: NK-YS (IL-2 2.5 ng/mL); test: as above; conditions: 72 h
[7] = test system: normal primary NK cells, pool 1 (3 donors), resting (IL-2 0 ng/mL); test: as above; conditions: 72 h
[8] = test system: YT (IL-2 2.5 ng/mL); test: as above; conditions: 72 h
[9] = test system: IMC-1 (IL-2 20 ng/mL); test: as above; conditions: 72 h
[10] = test system: DERL-7 (IL-2 2.5 ng/mL); test: as above; conditions: 72 h
[11] = test system: normal primary NK cells, pool 3 (3 donors) (IL-2 2.5 ng/mL); test: as above; conditions: 72 h
[12] = test system: NK-92 (IL-2 2.5 ng/mL); test: as above; conditions: 72 h
[13] = test system: NKL (IL-2 2.5 ng/mL); test: as above; conditions: 72 h
[14] = test system: SNK-6 (IL-2 2.5 ng/mL); test: drug sensitivity score (DSS) (DSS units); higher = more sensitive; extreme values may be limits of the assay; conditions: 72 h
[15] = test system: KAI3 (IL-2 2.5 ng/mL); test: as above; conditions: 72 h
[16] = test system: normal primary NK cells, pool 2 (3 donors) (IL-2 2.5 ng/mL); test: as above; conditions: 72 h
[17] = test system: normal primary NK cells, pool 1 (3 donors) (IL-2 2.5 ng/mL); test: as above; conditions: 72 h
[18] = test system: KHYG-1 (IL-2 2.5 ng/mL); test: as above; conditions: 72 h
[19] = test system: NK-YS (IL-2 2.5 ng/mL); test: as above; conditions: 72 h
[20] = test system: normal primary NK cells, pool 1 (3 donors), resting (IL-2 0 ng/mL); test: as above; conditions: 72 h
[21] = test system: YT (IL-2 2.5 ng/mL); test: as above; conditions: 72 h
[22] = test system: IMC-1 (IL-2 20 ng/mL); test: as above; conditions: 72 h
[23] = test system: DERL-7 (IL-2 2.5 ng/mL); test: as above; conditions: 72 h
[24] = test system: normal primary NK cells, pool 3 (3 donors) (IL-2 2.5 ng/mL); test: as above; conditions: 72 h
[25] = test system: NK-92 (IL-2 2.5 ng/mL); test: as above; conditions: 72 h
[26] = test system: NKL (IL-2 2.5 ng/mL); test: as above; conditions: 72 h
[27] = test system: normal NK cells expanded with K562-aAPC; test: percent inhibition of viability; higher = more inhibition; conditions: 72 h, IL-2 2.5 ng/mL
Protocol: (§1)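 Drug sensitivity and resistance testing on K562-aAPC-expanded normal NK cells: 5 concentrations (10-fold steps over a 10,000-fold range), 72 h at 37 °C, viability by CellTiter-Glo normalised to DMSO and benzethonium chloride controls; DSS from the fitted curve.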

[28] = test system: normal NK cells expanded with K562-aAPC; test: drug sensitivity score (DSS) (DSS units); higher = more sensitive; extreme values may be limits of the assay; conditions: 72 h; IL-2 2.5 ng/mL
Protocol: as §1

Oc1ccc2c(c1)CC[C@H](c1ccccc1)[C@@H]2c1ccc(OCCN2CCCC2)cc1 [Lasofoxifene] (max concentration tested 1000 nM)
percent inhibition of viability [%]
Conditions	0.1 nM	1 nM	10 nM	100 nM	1000 nM
[1]	4.04	34.2	14.3	17.7	-1.3
[2]	-1.79	-1.38	0	-0.11	15.5
[3]	-15.6	-6.78	-5.24	-11.7	-1.2
[4]	-0.49	-5.39	5.47	-10.7	0.81
[5]	-2.09	-2.31	1.74	5.02	8.46
[6]	1.84	-2.69	2.36	-0.77	10.5
[7]	7.2	-0.67	3.19	-7	6.03
[8]	2.75	2.01	2.57	-4.31	1.17
[9]	0.35	0.07	4.03	6.29	19.9
[10]	-2.25	-2.91	-6	-9.21	0.79
[11]	-15.8	-8.59	-8.05	-11	-1.01
[12]	6.27	1.85	5.66	-5.53	1.52
[13]	-11.5	-1.59	-8.69	-4.01	-9.81
[27]	-6.28	-2.87	-0.97	5.89	14.2

Conditions	drug sensitivity score
[14]	0
[15]	0.26
[16]	0
[17]	0
[18]	0
[19]	0
[20]	0
[21]	0
[22]	0.95
[23]	0
[24]	0
[25]	0
[26]	0
[28]	0.59

N#Cc1ccc(C(c2ccc(C#N)cc2)n2cncn2)cc1 [Letrozole] (max concentration tested 10000 nM)
percent inhibition of viability [%]
Conditions	1 nM	10 nM	100 nM	1000 nM	10000 nM
[1]	14.2	-31.4	-25.2	-23.6	-28.2
[2]	-6.48	-8.29	2.19	2.56	14.1
[3]	-3.07	-5.44	6.01	0.12	-0.44
[4]	-10.5	0.24	0.58	3.66	5.55
[5]	-7.78	-5.69	-3.04	-1.07	5.03
[6]	-8.7	-6.85	-4.19	1.26	9.67
[7]	-3.46	12.2	4.99	1.86	7.77
[8]	0.65	-5.8	1.61	-1.29	30.5
[9]	-2.09	-2.27	-1.74	2.28	8.91
[10]	3.92	-4.41	0.76	-20.5	-8.07
[11]	2.09	-1.11	10.7	-4.55	-7.8
[12]	-10.2	-8	-6.61	-5.03	17.5
[13]	-6.26	-9.07	3.52	11.2	10.6
[27]	-3.92	-7.21	-4.76	2.21	7.69

Conditions	drug sensitivity score
[14]	0
[15]	0.38
[16]	0
[17]	0
[18]	0
[19]	0
[20]	0
[21]	1.23
[22]	0
[23]	0
[24]	0
[25]	0.25
[26]	0.42
[28]	0
